Experimental data from PubChem BioAssay (NCI).
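96-well plates; 48 h exposure; 5 concentrations. Endpoints by linear interpolation between flanking doses. Not reached: highest tested concentration assigned. At the GI50, growth is halved. TGI denotes the concentration required for complete inhibition of growth.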

Legend:
Experiment in all cases: DTP human tumour cell line panel, 48 h
SF-268 CNS = system: SF-268 CNS
NCI-H522 lung = system: NCI-H522 lung
U251 CNS = system: U251 CNS
HT29 colon = system: HT29 colon
BT-549 breast = system: BT-549 breast
ACHN renal = system: ACHN renal
EKVX NSCLC = system: EKVX NSCLC
CCRF-CEM leukemia = system: CCRF-CEM leukemia
PC-3 prostate = system: PC-3 prostate
CAKI-1 renal = system: CAKI-1 renal

SMILES | TGI (SF-268 CNS) [µM] | TGI (NCI-H522 lung) [µM] | TGI (U251 CNS) [µM] | TGI (HT29 colon) [µM] | TGI (BT-549 breast) [µM] | TGI (ACHN renal) [µM] | TGI (EKVX NSCLC) [µM] | TGI (CCRF-CEM leukemia) [µM] | TGI (PC-3 prostate) [µM] | TGI (CAKI-1 renal) [µM] | GI50 (SF-268 CNS) [µM] | GI50 (CAKI-1 renal) [µM] | GI50 (NCI-H522 lung) [µM] | GI50 (U251 CNS) [µM] | GI50 (HT29 colon) [µM] | GI50 (ACHN renal) [µM] | GI50 (EKVX NSCLC) [µM] | GI50 (CCRF-CEM leukemia) [µM] | GI50 (PC-3 prostate) [µM]
Nc1nc2ncc(CNc3ccc(C(=O)NC(CCC(=O)O)C(=O)O)cc3)nc2c(=O)[nH]1 (stereo unspecified) | > 100 | > 100 | > 100 | > 100 | > 100 | > 100 | > 100 | > 100 | > 100 |  |  |  |  |  |  |  |  |  | 
CCC(=O)Nc1ccc(NC(C#N)c2cccc(Oc3ccccc3)c2)cc1 (stereo unspecified) | > 100 | > 100 |  | > 100 | > 100 | > 100 | > 100 | > 100 | > 100 | > 100 |  |  |  |  |  |  |  |  | 
CC(C)N=C(N)NC#N | > 100 | > 100 |  | > 100 |  | > 100 | > 100 | > 100 |  | > 100 |  |  |  |  |  |  |  |  | 
O=[N+]([O-])C(=C(N1CCOCC1)N1CCOCC1)/C(Cl)=C(\Cl)Br | 81.3 | 6.71 | 39.9 | 44.9 | 28.8 | 54 | 37.9 | 9.49 | > 100 |  |  |  |  |  |  |  |  |  | 
[N-]=[N+]=NC(c1cn(C2CC(O)C(CO)O2)c(=O)[nH]c1=O)C(Cl)I (stereo unspecified) | > 100 |  | > 100 | > 100 | > 100 | > 100 | > 100 |  |  |  |  |  |  |  |  |  |  |  | 
N#Cc1c(N2CCC(O)C2)c2ccccc2n2c1nc1ccccc12 (stereo unspecified) | > 100 | > 100 |  | > 100 | > 100 | 42 | > 100 | > 100 | > 100 | > 100 |  |  |  |  |  |  |  |  | 
N#CC(Cc1ccccc1)N(CCC1=CCCCC1)Cc1ccccc1 (stereo unspecified) | > 100 | 68 | > 100 | > 100 | > 100 | > 100 | > 100 |  | > 100 | > 100 |  |  |  |  |  |  |  |  | 
CN1C(=O)C2(C=CC(O)CC2)c2ccccc21 (stereo unspecified) | > 100 | > 100 | > 100 | > 100 |  | > 100 | > 100 | > 100 | > 100 | > 100 |  |  |  |  |  |  |  |  | 
COc1ccc(CCCNC(=O)c2cc(OC)c(OC)cc2CCO)cc1OC | > 100 | > 100 | > 100 | > 100 | > 100 | > 100 | > 100 |  | > 100 | > 100 |  |  |  |  |  |  |  |  | 
COC(=O)c1ccc(N=NN(C)COc2ccc(Br)cc2)cc1 | > 100 | > 100 | > 100 | > 100 |  |  | > 100 | > 100 |  | > 100 |  |  |  |  |  |  |  |  | 
O=C(Nc1ccc(-n2ccc3c(NC(=O)c4ccccc4)ncnc32)cc1)Nc1ccc(Cl)c(Cl)c1 | 12.9 | 7.34 | 2.29 | 2.9 |  | 14.2 | 21 | 2.83 | 2.86 | 21.2 | 4.22 | 8.79 | 1.28 | 0.942 | 0.965 | 6.25 | 7.24 | 0.987 | 1.06
CCOC(=O)C1c2[nH]c3ccccc3c2CCN1C(=O)c1ccc(OC)o1 (stereo unspecified) | > 10 | > 10 | > 10 | > 10 |  | > 10 | > 10 | > 10 | > 10 | > 10 |  |  |  |  |  |  |  |  | 
CSc1nc(NC2OC(COC(C)=O)C(OC(C)=O)C(OC(C)=O)C2OC(C)=O)c2c(n1)OCC2=O (stereo unspecified) | > 100 | > 100 | > 100 | > 100 |  | > 100 |  | > 100 |  | > 100 |  |  |  |  |  |  |  |  | 
CCOC(=O)c1cc2/c(=C\c3ccc(N(C)C)cc3)c3ccccc3n2[n+]1C | 19.7 |  | 11.8 | 12.7 | 7.11 | 20.4 | 21.5 | > 24.6 | 12.7 | 15.3 |  |  |  |  |  |  |  |  | 
COc1cc(C2c3cc4c(cc3OC(NNS(=O)(=O)c3ccc(C)cc3)C2C)OCO4)cc(OC)c1O (stereo unspecified) | > 100 | 69.1 | 27.8 | 49.6 |  | 33.6 | 49.8 | > 100 | 14 | 32.8 |  |  |  |  |  |  |  |  | 
COc1ccccc1-c1cc(=O)c2cc3c(cc2[nH]1)OCO3 | > 100 |  | > 100 | > 100 |  | > 100 | > 100 | > 100 |  |  | 64.5 |  |  |  |  |  |  |  | 
Cc1ccc(/C(O)=C/C(=O)C(=O)NC23CC4CC(CC(C4)C2)C3)cc1 | > 10 |  |  | > 10 |  |  | > 10 | > 10 | > 10 | > 10 |  |  |  |  |  |  |  |  | 
COc1ccc(-c2cc(=O)c3cc(OC)ccc3[nH]2)cc1 | > 100 | > 100 |  | > 100 |  | > 100 | > 100 | > 100 |  |  |  |  |  |  |  |  |  |  | 
O=C(CN1CCOCC1)c1ccc2c(c1)oc(=O)n2CCN1CCOCC1 | > 100 |  | > 100 | > 100 |  |  | > 100 | > 100 | > 100 | > 100 |  |  |  |  |  |  |  |  | 
COc1ccc(/C(Cl)=C(\C=N/O)c2ccc(OC)c(OC)c2)cc1OC | > 100 | > 100 | > 100 | > 100 |  | > 100 | > 100 | > 100 |  | > 100 |  |  |  |  |  |  |  |  | 
COc1cc(-c2cc(=O)c3c(O)c(CC=C(C)C)c(O)cc3o2)ccc1O | > 50 |  | > 50 | > 50 | > 50 | > 50 | 32.5 | > 50 | > 50 | 28 |  |  |  |  |  |  |  |  | 
CCCCCCCCCCCCCCCCCCNC(=S)/N=C\C1=C(O)c2ccccc2C1=O | 22.1 |  | 18.3 | 25 | 33.9 | 26.2 | 28 | 21.5 | 15.9 | 31.2 |  |  |  |  |  |  |  |  | 
COC(=O)C1(C#N)C(C)(C)N=C(c2ccccc2)C12CCCCC2 (stereo unspecified) | > 100 | > 100 | > 100 | > 100 | > 100 |  | > 100 | > 100 | > 100 | > 100 |  |  |  |  |  |  |  |  | 
